Patent US20230136569A1, “USE OF NMN TO REDUCE IMMUNODEPRESSION AND IMMUNOSENESCENCE” (NUVAMID SA, priority 2020, published 2023)

Key:
[1] = system: thymocytes; experiment: Flow cytometry of thymocytes from old mice; format: in vivo; settings: 500 mg/kg p.o. in drinking water, 6 weeks (FIG. 3)
Method: The administering of β-NMN at 500 mg/kg, of α-NMN at 500 mg/kg and of the vehicle (water) was obtained via oral route (p.o) in the drinking water to young and old mice. The solutions were prepared by dissolving the powder of β-NMN or α-NMN in the vehicle (water). The study comprised 4 groups each having 6 mice: • Group 1: young mice (aged 10 weeks)+drinking water (vehicle) • Groupe 2: old mice (aged 15 months)+drinking water (vehicle) • Group 3: old mice (aged 15 months)+compound I-B (alpha-NMN) in the drinking water • Group 4: old mice (aged 15 months)+compound I-A (beta-NMN) in the drinking water The water consumption of the mice was assessed per cage every other day. The mice were weighed every week. The mice in Group 3 were sacrificed after 4 weeks for organ collection and characterisation of T cell function. The mice in Group 4 were sacrificed after 6 weeks for organ collection and characterisation of T cell function. On the day of sacrifice, the mice were anaesthetised with Vetoflurane (isoflurane) and blood samples were taken from the retroorbital sinus. The blood was incubated for 30 minutes at ambient temperature and then centrifuged at 1300 g for 10 minutes. […] The thymus was weighed and measured to evaluate involution thereof. […] Measured parameters: The results of flow cytometry are expressed in number or as a proportion of cells per organ. […]

[2] = system: CD4+ and CD8+ T cells (splenocytes); experiment: Proliferation assay of CFSE-stained splenocytes from treated mice after stimulation; format: in vivo; settings: splenocytes of treated old mice, anti-CD3/CD28 beads 96 h
Method: Proliferation assay: At D0+5 weeks, the splenocytes were marked with 2.5 μM CFSE and cultured at a concentration of 0.25×10^6 cells per well in a 96-well plate. The cells were stimulated with 2.5 μg InfluvacTetra® and incubated at 37° C. for 96 hours. The cells were then marked with anti-CD4 and CD8 antibodies and the proliferation of the T CD4+ and CD8+ cells was analysed by flow cytometry. The total splenocytes were stained with Carboxyfluorescein succinimidyl ester (CFSE) and stimulated with beads coated with anti-CD3/CD28 for 96 h. The mean fluorescence intensity of the CFSE was analysed and the ratio before and after stimulation was calculated.

## NC(=O)c1ccc[n+]([C@@H]2O[C@H](COP(=O)([O-])O)[C@@H](O)[C@H]2O)c1 (stereo in doubt) [I-A, nicotinamide mononucleotide]
[1]
  number of CD8+ thymocytes: increase in the number of CD8+ thymocytes
[2]; compared with the three other groups (FIG. 9A)
  proliferation of CD4 cells: significant increase in the proliferation of CD4 and CD8 cells
[2]; compared with the three other groups (FIG. 9B)
  proliferation of CD8 cells: significant increase in the proliferation of CD4 and CD8 cells
